Like-named read-outs stand apart in the source and are kept apart here.

We go through nine compounds from US20230131899A1, “INHIBITORS OF MICROBIALLY INDUCED AMYLOID” (Axial Therapeutics, Inc., priority 2020, published 2023).

The test system of the experiment is CsgA gene expression (csgBAC promoter-GFP reporter) in E. coli UTI89. The experiment can be described thus: In vitro live cell fluorescent reporter assay of CsgA transcription (Reporter Assay). In kind it is cell-based. To be noted: Escherichia coli. The gist of the method:
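Chromosomal single-copy csgBAC promoter–GFP reporter in E. coli UTI89, started at OD600 0.003 in YESCA broth with compound (0.14–100 μM, 1% DMSO), 20 h at 27 °C. GFP (ex 485/em 525 nm) background-subtracted and normalized to vehicle; IC50 and X[50] from curve fits. OD600 tracked growth effects.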
For orientation: A reporter such as luciferase makes a cellular process visible.

Setting [1] is: read-out: Reporter Assay Abs IC50 (activity range), median Abs IC50 in the CsgA reporter assay, class symbol.
Setting [2] is: read-out: Reporter Assay Abs IC50 (μM), median Abs IC50 in the CsgA reporter assay, N/A = maximum expression reduction is <50% of control.

In general, IC50 refers to the concentration that inhibits the measured activity by half. Turning to `O=C(O)C1CSc2c(-c3cccc(C(F)(F)F)c3)c(Cc3cccc4ccccc34)cc(=O)n21` (racemic) [Compound 011, 7-(naphthalen-1-ylmethyl)-5-oxo-8-(3-(trifluoromethyl)phenyl)-2,3-dihydro-5H-thiazolo[3,2-a]pyridine-3-carboxylic acid], the IC50 is 4.6 to 10 µM under setting [1] and 5.8 µM under setting [2].
Turning to `CCCN1CC(C(=O)O)n2c(c(-c3cccc(C(F)(F)F)c3)c(Cc3cccc4ccccc34)cc2=O)S1(=O)=O` (racemic) [Compound 016, 8-(naphthalen-1-ylmethyl)-6-oxo-2-propyl-9-(3-(trifluoromethyl)phenyl)-3,4-dihydro-2H,6H-pyrido[1,2-e][1,2,5]thiadiazine-4-carboxylic acid 1,1-dioxide], the concentration for half-maximal inhibition (IC50) is 4.6 to 10 µM under setting [1] and 5 µM under setting [2].
Consider `Nc1c(Cc2cccc3ccccc23)c(-c2cccc(C(F)(F)F)c2)c2n(c1=O)C(C(=O)O)CS2` (racemic) [Compound 020, 6-amino-7-(naphthalen-1-ylmethyl)-5-oxo-8-(3-(trifluoromethyl)phenyl)-2,3-dihydro-5H-thiazolo[3,2-a]pyridine-3-carboxylic acid], for which the half-maximal inhibitory concentration (IC50) is, setting by setting: under setting [1], 1.3 to 4.5 µM; under setting [2], 3.9 µM.
For the compound `CCCCCN1CC(C(=O)O)n2c(c(-c3cccc(C(F)(F)F)c3)c(Cc3cccc4ccccc34)cc2=O)S1(=O)=O` (racemic) [Compound 025, 8-(naphthalen-1-ylmethyl)-6-oxo-2-pentyl-9-(3-(trifluoromethyl)phenyl)-3,4-dihydro-2H,6H-pyrido[1,2-e][1,2,5]thiadiazine-4-carboxylic acid 1,1-dioxide], the IC50 under setting [1] was 1.3 to 4.5 µM and the IC50 under setting [2] came to 1.9 µM.
As for `O=C(O)C1C[S+]([O-])c2c(-c3cccc(C(F)(F)F)c3)c(Cc3cccc4ccccc34)cc(=O)n21` (racemic) [Compound 027b, 7-(naphthalen-1-ylmethyl)-5-oxo-8-(3-(trifluoromethyl)phenyl)-2,3-dihydro-5H-thiazolo[3,2-a]pyridine-3-carboxylic acid 1-oxide], the IC50 by setting is: under setting [1], over 10 µM; under setting [2], 77.5 µM.
For `O=C(O)[C@@H]1CS(=O)(=O)c2c(-c3cccc(C(F)(F)F)c3)c(Cc3cccc4ccccc34)cc(=O)n21` (single isomer, unassigned) [Compound 010a, 7-(naphthalen-1-ylmethyl)-5-oxo-8-(3-(trifluoromethyl)phenyl)-2,3-dihydro-5H-thiazolo[3,2-a]pyridine-3-carboxylic acid 1,1-dioxide], the IC50 was over 10 µM under setting [1] and 43.9 µM under setting [2].
The corresponding values for `O=C(O)[C@H]1CS(=O)(=O)c2c(-c3cccc(C(F)(F)F)c3)c(Cc3cccc4ccccc34)cc(=O)n21` (single isomer, unassigned) [Compound 010b, 7-(naphthalen-1-ylmethyl)-5-oxo-8-(3-(trifluoromethyl)phenyl)-2,3-dihydro-5H-thiazolo[3,2-a]pyridine-3-carboxylic acid 1,1-dioxide] are over 10 µM and 58.5 µM.
The corresponding values for `O=C(O)C1CSc2c(-c3cccc(C(F)(F)F)c3)c(Cc3cccc4ccccc34)cc(=O)n21` (single isomer, unassigned) [Compound 011a, 7-(naphthalen-1-ylmethyl)-5-oxo-8-(3-(trifluoromethyl)phenyl)-2,3-dihydro-5H-thiazolo[3,2-a]pyridine-3-carboxylic acid] are 1.3 to 4.5 µM and 4.4 µM.
`CCN1CC(C(=O)O)n2c(c(-c3cccc(C(F)(F)F)c3)c(Cc3cccc4ccccc34)cc2=O)S1(=O)=O` (single isomer, unassigned) [Compound 015a, 2-ethyl-8-(naphthalen-1-ylmethyl)-6-oxo-9-(3-(trifluoromethyl)phenyl)-3,4-dihydro-2H,6H-pyrido[1,2-e][1,2,5]thiadiazine-4-carboxylic acid 1,1-dioxide]: the IC50 under setting [1] was over 10 µM and the IC50 under setting [2] was 21.7 µM.
